# Laboratory results reported in patent US20210274787A1, “USE OF A DIFLUORO-(2-HYDROXYPROPYL)PYRIDINE COMPOUND AS A FUNGICIDE FOR CONTROL OF LEAF SPOT OF SUGAR BEETS” (Dow AgroSciences LLC, priority 2016, published 2021).
# Tested on: Cercospora beticola (CERCBE), leaf spot of sugar beet
# Test: Field assessment of Cercospora beticola (CERCBE) in sugar beets
# Format: in vivo
# Conditions: for % Control CERCBE (based on AUDPC): sugar beet field, natural infection
# Text: Field Assessment of Cercospora beticola (CERCBE) in Sugar Beets:
# A fungicidal treatment containing an EC formulation of compound I by itself and in combination with four adjuvants was sprayed on sugar beet plants (BEAVA, Corvina variety) six times during the course of 7 weeks ([…]) under natural infection with CERCBE. The commercial standard used in the study was difenoconazole (Score) and was applied at 100 g ai/ha. The treatment was part of an experimental trial designed as a randomized complete block with four replications and a plot of approximately 1×2 m. Compound I was applied at water volume of 400 L/ha, using a backpack precision plot sprayer (BKPCKAIR, EVEN FAN TEEJET TP 8004EVS Nozzle, 1 m boom width) and pressurized at 250 kPa.
# Disease severity was recorded as a percentage of visual diseased foliage on whole plot. Cercospora leaf spot infection was assessed five times, 6 days after application A (DAAA); 6 DAAC; 12 DAAB; and 7 and 21 DAAF. The disease infection was recorded following EPPO PP 1/1 (4) guideline prescriptions. Area under the disease progress curve (AUDPC) was calculated for each plot using the sets of recorded severity data. Relative AUDPC (% control based on AUDPC) was calculated as percent of the nontreated control.
SMILES,"CERCBE control compared with difenoconazole (statistical) (100 g ai/ha in 0.15% Phase II, Ethomeen, Lutensol or Agnique BP-420, ANOVA and Tukey's test (p=0.10))",level of control of CERCBE compared with difenoconazole (numerical) (100 g ai/ha in Agnique BP-420 (50% EC formulation at 0.3% v/v) or 0.15% Lutensol),"fungicidal effect on Cercospora beticola (leaf spot of sugar beet, general statement)","% Control CERCBE (based on AUDPC) (50 g ai/ha, adjuvant Agnique BP-420 (50% w/w at 0.3% v/v))","% Control CERCBE (based on AUDPC) (50 g ai/ha, no adjuvant)","% Control CERCBE (based on AUDPC) (100 g ai/ha, adjuvant Agnique BP-420 (50% w/w at 0.3% v/v))","% Control CERCBE (based on AUDPC) (100 g ai/ha, adjuvant Ethomeen T18H (0.15% v/v))","% Control CERCBE (based on AUDPC) (100 g ai/ha, adjuvant Lutensol TDA 9 (0.15% v/v))","% Control CERCBE (based on AUDPC) (100 g ai/ha, adjuvant Phase II (0.15% v/v))","% Control CERCBE (based on AUDPC) (100 g ai/ha, no adjuvant)","% Control CERCBE (based on AUDPC) (150 g ai/ha, adjuvant Agnique BP-420 (50% w/w at 0.3% v/v))","% Control CERCBE (based on AUDPC) (150 g ai/ha, no adjuvant)","% Control CERCBE (based on AUDPC) (100 g ai/ha, Score (commercial standard))"
"N#Cc1ccc(Oc2ccc(C(F)(F)C(O)(Cn3nc[nH]c3=S)c3ccc(F)cc3F)nc2)cc1 (stereo not shown) [Compound I, 4-((6-(2-(2,4-difluorophenyl)-1,1-difluoro-2-hydroxy-3-(5-thioxo-4,5-dihydro-1H-1,2,4-triazol-1-yl)propyl)pyridin-3-yl)oxy)benzonitrile]",statistically equivalent to that of the commercial standard difenoconazole at 100 g ai/ha,numerically equivalent to that of difenoconazole at 100 g ai/ha,significant fungicidal effect,B (51-74),B (51-74),A (75-100),B (51-74),A (75-100),B (51-74),B (51-74),A (75-100),B (51-74),–
"CC1COC(Cn2cncn2)(c2ccc(Oc3ccc(Cl)cc3)cc2Cl)O1 (stereo not shown) [Difenoconazole, difenoconazole, reference compound]",–,–,–,–,–,–,–,–,–,–,–,–,A (75-100)
